Earlier results on two molecules are cited in patent US20060078955A1, “Method for retrieving delta9-THC from oral fluid” (Lin-Zhi International, priority 2004, published 2006).

Where only a bound is given, the exact number is not on record here.

One may read the aqueous solubility as the concentration that dissolves in the medium under given conditions. Take `CCCCCc1cc(O)c2c(c1)OC(C)(C)[C@@H]1CCC(C)=C[C@@H]21` [Δ^9-THC, Δ^9-tetrahydrocannabinol]: the aqueous solubility (Jarho et al.) is 1 to 2 µg/mL. Consider “sulfobutyl-ether-β-cyclodextrin [Captisol]”, for which, where the note is “hepta-substituted preparation”, the intrinsic aqueous solubility was > 50 % w/v.
